{"source": "patent US20240197666A1", "about": "“DITERPENOID COMPOUNDS THAT ACT ON PROTEIN KINASE C (PKC)” (K-Gen Therapeutics, Inc., priority 2021, published 2024)", "key": {"C1b domain of human PKCα": {"target": "T1, C1b domain of human PKCα (Homo sapiens, UniProt P17252)", "T1 construct": "Genes encoding C1b domains of human PKCα, δ, ε, θ, and PKD1 (PKCμ) were synthesized; made in house; host or cells: E. coli BL21(DE3)", "assay": "biochemical", "format": "binding", "conditions": "3H-PDBu competition"}, "C1b domain of human PKCδ": {"target": "T2, C1b domain of human PKCδ (Homo sapiens, UniProt Q05655)", "T2 construct": "Genes encoding C1b domains of human PKCα, δ, ε, θ, and PKD1 (PKCμ) were synthesized; made in house; host or cells: E. coli BL21(DE3)", "T2 sequence (Q05655 230-280 limits assumed)": "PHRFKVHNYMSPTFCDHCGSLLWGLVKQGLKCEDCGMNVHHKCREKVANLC", "assay": "biochemical", "format": "binding", "conditions": "3H-PDBu competition", "in_short": "(§1)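 Ki derived by Cheng-Prusoff from IC50, with each protein batch's measured ^3H-PDBu Kd. Displacement of ^3H-PDBu from E. coli-produced GST-fused C1b domains or full-length human PKC was run 10 min at 37°C plus 20 min on ice, with filter capture and scintillation counting.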"}, "[1]": {"target": "T3, C1b domain of human PKD1 (PKCμ) (Homo sapiens, UniProt Q15139)", "T3 construct": "Genes encoding C1b domains of human PKCα, δ, ε, θ, and PKD1 (PKCμ) were synthesized; made in house; host or cells: E. coli BL21(DE3)", "T3 sequence (Q15139 270-320 limits assumed)": "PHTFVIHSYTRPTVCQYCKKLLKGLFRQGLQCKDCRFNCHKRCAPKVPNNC", "assay": "Competitive 3H-PDBu binding assay, C1b domain of PKD1 (PKCμ)", "conditions": "3H-PDBu competition", "experimental": "Compounds described in this disclosure were tested for binding affinity to C1b domain of PKC isoforms. Compound binding affinity to C1b domain of PKC isoforms was derived from competitive binding assay using radioactive tracer ^3H-PDBu and recombinant GST-C1b or full-length of human PKC proteins based on modified procedures from Methods in Molecular Biology, vol.\nGenes encoding C1b domains of human PKCα, δ, ε, θ, and PKD1 (PKCμ) were synthesized and inserted into pGEX-2TK or pGEX-4T1 vectors for expression and production of GST-C1b proteins in E. coli BL21(DE3) via IPTG induction. The target proteins were purified by glutathione sepharose 4B and followed by ion exchange chromatography if needed to achieve purity >70%. Aliquots of the purified proteins were stored at −80 degree for binding assay (storage buffer: 20 mM Tris pH 8.0, 200 mM NaCl, 10% glycerol, 1 mM DTT).\nThe plate was incubated at 37° C. on a shaker at 300 rpm for 10 minutes and then put on ice for 20 minutes. […] The bottom of the filter plate was sealed and 50 μL of MicroScint-20 (PerkinElmer) cocktail was added to each well. ^3H-PDBu trapped in each well was counted using PerkinElmer MicroBeta2 Reader. Data were analyzed using GraphPad Prism5 with the model “log(inhibitor) vs. response-variable slope” to fit the IC50, and then IC50 was transformed to Ki using Cheng-Prusoff equation: Ki=IC50/(1+added radio ligand/Kd). Kd is the binding affinity of each protein preparation to ^3H-PDBu, determined experimentally."}, "A549 cell line": {"test_system": "A549 cell line", "assay": "Proliferation of A549 (CellTiter Glo)", "format": "cell-based", "conditions": "Homo sapiens, read-out: IC50 μM (A549 Cell Line)", "in_short": "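Compound effect on proliferation was read as CellTiter Glo luminescence after 96 h exposure to a 3-fold dilution series (≤0.25% DMSO). A549 cells, which carry activating K-Ras, were plated at 1,000/well one day before dosing. IC50, relative IC50 and maximal inhibition were fitted from % inhibition versus DMSO control.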"}, "[2]": {"test_system": "phosphorylation of PKCμ, PKCδ and Erk1/2 in A549 lung cancer cells", "assay": "Western blot of activation of PKC and downstream target protein in A549 cells", "format": "cell-based", "conditions": "30 minutes", "experimental": "According to the methods described in patent (WO/2017/083783) A549 lung cancer cells (˜3 million cells) were seeded in 10 cm tissue culture dishes (or ˜1 million cells in 6 cm dish) and grown overnight. Cells were then treated with different drugs at indicated concentrations for 30 minutes. Cell lysate preparation, protein quantitation, SDS-PAGE, and Western blotting procedures are described (WO/2017/083783). β-actin or Vinculin was used as loading controls. Imagequant LAS4000 (GE) was used to scan membranes if secondary antibodies anti-mouse IgG HRP conjugate or anti-rabbit IgG HRP conjugate (dilutions from 1:2000-1:10000) were used. For ProteinSimple Wes system, manufacture's procedure was followed (ProteinSimple 12-230 kDa Wes Separation Module) for sample preparation, loading, running, and data analysis.\nPhosphorylation of these sites has been linked to acute activation or catalytic activity of the PKC isoforms and Erk1/2. High level of phosphorylation indicates strong activation.\nA subset of the diterpenoid compounds with good binding affinity to novel PKC isoforms and PKCμ was tested at two different concentrations in A549 cells to assess activation of PKCμ, PKCδ, and Erk1/2 by Western blot analysis. In addition to the phospho-specific antibodies described above, an additional phospho-specific antibody P-PKCδ (S299) (Abcam cat #133456) was also used. This antibody has been shown in the literature (Durgan et al., FEBS Lett. 2007, 581(18):3377-81, Novel phosphorylation site markers of protein kinase C delta activation) to be able to detect activation of PKCδ. K-101 (prostratin, 1 μM) was included as reference compounds."}, "KP-4 (Pancreatic)": {"test_system": "KP-4 (Pancreatic)", "assay": "Proliferation of KP-4", "format": "cell-based", "conditions": "read-out: IC50 KP-4 (Pancreatic)", "experimental": "The diterpenoid compounds were tested in A549, a non-small cell lung cancer cell line harboring a K-Ras activating mutation. Briefly, A549 cells at a density of 1,000 cells/well were seeded in 96-well plates and incubated at 37° C. for 24 hours. A series of different concentrations of compound stocks (500×) were prepared by 3-fold serial dilution in DMSO. These compounds were further diluted in culture media and then added to cells so that the final DMSO concentration was not exceeding 0.25%. After 96 hours of incubation, 50 μL of CellTiter Glo reagent (Promega) was added to each well and luminescence was measured after 10 minutes using EnVision (PerkinElmer). Luminescence from cells treated with DMSO alone was set as Max and % of inhibition was calculated as follows: Inhibition %=(Max-Sample value)/Max×100. Data was analyzed using XL-fit software (ID Business Solutions Ltd.) and IC50, relative IC50, and % of top inhibition was calculated. Some of the compounds in this disclosure were very potent in blocking proliferation of A549 lung cancer cells at low nM range. In addition, potency of inhibiting A549 proliferation correlated well with its binding affinity to PKCs for this series of compounds. In other words, higher affinity binders had stronger inhibitory effects on A549 proliferation. This further support the notion that activation, rather than inhibition, of certain PKC isoforms is required to block proliferation of cancer cells, some of which may harbor K-Ras mutations. This is in sharp contrast to previous literature and common belief that inhibition of PKC is necessary to block cancer cell growth (Kang, 2014, New Journal of Science, 2014:1-36). Data presented here is in agreement with recent findings that many loss-of-function but not gain-of-function mutations of PKC isoforms have been identified in many human cancers (Antal et al., 2015, Cell, 160:489-502).\nThe compounds in this disclosure were tested for their potency in blocking proliferation of a few other cancer cells lines, including K-Ras mutant pancreatic cell lines Panc2.13 and KP-4, leukemia cell line HL-60, and lymphoma cell lines Namalwa and Mino. Similar procedures as in Example 67 were followed. Initial cell numbers seeded in 96-well plates were different for different cell lines: 3000 cells/well for Panc2.13; 800-1000 cells/well for KP-4; 5000 cells/well for HL-60; 5000-10000 cells/well for Namalwa and Mino. A ratio of (IC50 of K101)/(IC50 of compound) (data in parenthesis in Table 5) was used to normalize the compound potency from different assay batches to a common comparator K101."}, "Namalwa (Lymphoma)": {"test_system": "Namalwa (Lymphoma)", "assay": "Proliferation of Namalwa", "format": "cell-based", "conditions": "96 h; read-out: IC50 Namalwa (Lymphoma)", "in_short": "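Panc2.13 was seeded at 3000 cells/well, KP-4 at 800-1000, HL-60 at 5000 and Namalwa at 5000-10000, then given 3-fold serial dilutions of compound with final DMSO ≤0.25% for 96 h at 37° C. CellTiter Glo luminescence was read and inhibition calculated against DMSO-only wells. IC50 was normalised to comparator K101.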"}, "Mino (Lymphoma)": {"test_system": "Mino (Lymphoma)", "assay": "Proliferation of Mino", "format": "cell-based", "conditions": "Homo sapiens, MINO, 96 h; read-out: IC50 Mino (Lymphoma)", "in_short": "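Luminescent ATP read-out (CellTiter Glo) after 96 h compound exposure gave % inhibition relative to DMSO-treated cells, from which IC50 was fitted. Seeding densities were line-specific, from 800 to 10000 cells/well. Potency across batches was normalised to reference compound K101.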"}, "PANC1 cells": {"test_system": "PANC1 cells", "assay": "Sphere formation assay", "format": "cell-based", "conditions": "Homo sapiens, PANC-1, read-out: concentration exhibiting at least 50% inhibition on the sphere forming efficiency", "experimental": "A group of diterpenoid compounds of the present disclosure were tested to assess their effects on blocking formation of spheres from cancer cell lines such as PANC1, a K-Ras mutant pancreatic cell line. Briefly, PANC1 cells were harvested, re-suspended as single cell suspensions, counted and seeded into Ultra Low Attachment Culture 96-well plate (Corning, Cat #3474) at 100 cells/well in 100 μl of complete media (with 10% FBS) containing 2% Matrigel (Corning, Cat #354234) and DMSO or compounds. Six replicates per condition were seeded. The seeded cells were placed in the 37° C. tissue culture incubator. 10 μl of low serum containing media (with 0.1% FBS) was added to each well every week. Spheres formed after 3-4 weeks were counted. Sphere forming efficiency was expressed as percentage of # of spheres/ # of cells seeded."}, "[3]": {"test_system": "NFκB-driven transcription in HeLa-NFκB luciferase reporter cell line", "assay": "NFκB luciferase reporter assay", "conditions": "Homo sapiens, HeLa, 16 h, read-out: NFκB-luc HeLa cells EC50 (μM)"}, "C1b domain of human PKCε": {"target": "T4, C1b domain of human PKCε (Homo sapiens, UniProt Q02156)", "T4 construct": "Genes encoding C1b domains of human PKCα, δ, ε, θ, and PKD1 (PKCμ) were synthesized; made in house; host or cells: E. coli BL21(DE3)", "T4 sequence (Q02156 242-292 limits assumed)": "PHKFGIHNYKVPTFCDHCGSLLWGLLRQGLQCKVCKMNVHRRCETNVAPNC", "assay": "biochemical", "format": "binding", "conditions": "3H-PDBu competition", "in_short": "as §1"}}, "note": "Where two headings read alike, the source gives them in different places.", "data": [{"smiles": "CC1=C[C@H]2[C@@]3(O)[C@H](C)C[C@]4(OC(=O)[C@@H](N)CCc5ccc(C(F)(F)F)cc5)[C@H]([C@@H]3C=C(CO)C[C@]2(O)C1=O)C4(C)C", "values": [{"measurement": "Ki", "setting": "C1b domain of human PKCα", "value": "200 to 400", "unit": "nM"}, {"measurement": "Ki", "setting": "C1b domain of human PKCδ", "value": "10 to 30", "unit": "nM"}, {"measurement": "Ki", "setting": "[1]", "value": "< 5", "unit": "nM"}, {"measurement": "IC50", "setting": "A549 cell line; A549, 96 hours, CellTiter Glo", "value": "0.1 to 0.2", "unit": "µM"}]}, {"smiles": "CC(=O)O[C@@]12C[C@@H](C)[C@@]3(O)[C@@H](C=C(CO)C[C@]4(O)C(=O)C(C)=C[C@@H]34)[C@@H]1C2(C)C", "note": "[Compound K101, prostratin, reference compound]", "values": [{"measurement": "phosphorylation of PKCμ, PKCδ and Erk1/2", "setting": "[2]; 1 μM", "value": "induced high levels of phosphorylation"}, {"measurement": "IC50", "setting": "KP-4 (Pancreatic)", "value": "200 to 600", "unit": "nM"}, {"measurement": "IC50", "setting": "Namalwa (Lymphoma)", "value": "100 to 600", "unit": "nM"}, {"measurement": "IC50", "setting": "Mino (Lymphoma)", "value": "100 to 600", "unit": "nM"}, {"measurement": "IC50", "setting": "PANC1 cells; PANC1, spheres counted after 3-4 weeks", "value": 5500, "unit": "nM"}, {"measurement": "EC50", "setting": "[3]", "value": "0.2 to 0.6", "unit": "µM"}]}, {"smiles": "CC1=C[C@H]2[C@@]3(O)[C@H](C)C[C@]4(OC(=O)[C@H](N)Cc5ccccc5)[C@H]([C@@H]3C=C(CO)C[C@]2(O)C1=O)C4(C)C", "values": [{"measurement": "phosphorylation of PKCμ, PKCδ and Erk1/2", "setting": "[2]; 3 μM", "value": "induced phosphorylation"}, {"measurement": "IC50", "setting": "A549 cell line; A549, 96 h", "value": "1 to 2", "unit": "µM"}]}, {"smiles": "CC1=C[C@H]2[C@@]3(O)[C@H](C)C[C@]4(OC(=O)[C@@H](N)C(C)(C)C)[C@H]([C@@H]3C=C(CO)C[C@]2(O)C1=O)C4(C)C", "values": [{"measurement": "Ki", "setting": "C1b domain of human PKCδ", "value": "10 to 30", "unit": "nM"}, {"measurement": "Ki", "setting": "C1b domain of human PKCε", "value": "60 to 100", "unit": "nM"}, {"measurement": "IC50", "setting": "A549 cell line; A549, 96 h", "value": "0.2 to 0.6", "unit": "µM"}, {"measurement": "IC50", "setting": "PANC1 cells", "value": "≤ 1500", "unit": "nM"}]}]}
